Measured values as given in PubChem BioAssay (NCI).
“And” between values parts separate entries of the source, which are not always exact repeats. Equal entries are not always repeated.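 The compound was tested at five concentrations on cells cultured in 96-well plates, with a 48-hour exposure period. GI50: concentration for 50% inhibition of growth. TGI denotes the concentration required for complete inhibition of growth.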

What was measured:
Assay in all cases: growth of human tumour cells (NCI), 48 h
K-562 leukemia = test system: K-562 leukemia
HCC-2998 colon = test system: HCC-2998 colon
SK-OV-3 ovarian = test system: SK-OV-3 ovarian
SK-MEL-2 melanoma = test system: SK-MEL-2 melanoma
U251 CNS = test system: U251 CNS
SNB-75 CNS = test system: SNB-75 CNS
OVCAR-3 ovarian = test system: OVCAR-3 ovarian
CAKI-1 renal = test system: CAKI-1 renal
SK-MEL-28 melanoma = test system: SK-MEL-28 melanoma
HL-60(TB) leukemia = test system: HL-60(TB) leukemia

Row | SMILES | GI50 (K-562 leukemia) [µM] | TGI (K-562 leukemia) [µM] | GI50 (HCC-2998 colon) [µM] | TGI (HCC-2998 colon) | GI50 (SK-OV-3 ovarian) [µM] | TGI (SK-OV-3 ovarian) | GI50 (SK-MEL-2 melanoma) [µM] | TGI (SK-MEL-2 melanoma) | GI50 (U251 CNS) [µM] | TGI (U251 CNS) | GI50 (SNB-75 CNS) [µM] | TGI (SNB-75 CNS) [µM] | GI50 (OVCAR-3 ovarian) [µM] | TGI (OVCAR-3 ovarian) [µM] | GI50 (CAKI-1 renal) [µM] | TGI (CAKI-1 renal) [µM] | GI50 (SK-MEL-28 melanoma) [µM] | TGI (SK-MEL-28 melanoma) | GI50 (HL-60(TB) leukemia) | TGI (HL-60(TB) leukemia)
1 | Cc1ccccc1C(C(=O)NC1CCCCC1)N(C(=O)Cn1ccnc1C)c1cccc(F)c1 (stereo not given) | > 100 | > 100 | > 100 | > 100 µM | > 65.4 | > 100 µM | 21.3 | 79.3 µM | > 52.1 | > 100 µM | 15.6 | 59.1 | > 69.5 | > 100 | > 57.4 | > 100 | > 100 | > 100 µM | > 100 µM | > 100 µM
2 | Cc1cc(NC(=O)NC(=O)c2ccccc2NC(=O)CN)ccc1Oc1ncc(Br)cn1 | 0.0285 | – | 0.354 | 18 µM and 2.68 µM | – | 35.8 µM and 13.9 µM | 21.2 | 9.7 µM and 52.9 µM | 0.409 | 15 µM and 20.6 µM | – | 3.28 | 0.0157 | – | – | 2.61 | 0.0822 | 41.2 µM and > 100 µM | 0.111 µM and 0.0249 µM | 0.865 µM and 0.175 µM
3 | CC1(C)Cc2c(Br)c(Br)c(Br)c(OCC(O)CN3CCOCC3)c2O1 (stereo not given) | 3.1 | 14.3 | 14.1 | 28.8 µM | 15.9 | 29.6 µM | 7.64 | 23.8 µM | 13.7 | 27.9 µM | 12.6 | 38.1 | 12.3 | 28.5 | 12.3 | 27.4 | 15 | 31.9 µM | 3.72 µM | 17.9 µM
4 | COC(=O)[C@@H]1CCCN1C(=O)[C@H]1CCCN1C(=O)[C@@H](Cc1c[nH]c2ccccc12)NC(=S)Nc1cc(C(F)(F)F)cc(C(F)(F)F)c1 | 3.73 | 12.2 | 2.05 | 4.3 µM | 6.56 | 18.9 µM | 2.14 | 3.98 µM | 1.92 | 4.52 µM | 1.4 | 6.75 | 2.48 | 5.71 | 2.75 | 8.99 | 3.05 | 10.2 µM | 2.7 µM | 6.35 µM
5 | O=C(CCCn1ccnc1[N+](=O)[O-])NCCn1ccnc1[N+](=O)[O-] | – | > 100 | – | > 100 µM | – | > 100 µM | – | > 100 µM | – | > 100 µM | – | > 100 | – | > 100 | – | > 100 | – | > 100 µM | – | > 100 µM
6 | COc1ccc2[nH]cc(-c3nc(-c4c[nH]c5ccncc45)cs3)c2c1 | 1.72 | 4.7 | 1.87 | 3.32 µM | 13.7 | 26.6 µM | 2.05 | 3.91 µM | 1.91 | 3.67 µM | 6.96 | 20.1 | 2.18 | 4.07 | 2.86 | 9.13 | 1.94 | 3.44 µM | 1.51 µM | 3.47 µM
7 | COc1ccc(-c2ccccc2)cc1-c1c(Nc2cc(Cl)cc(Cl)c2O)c(=O)c1=O | 1.59 | > 50 | 1.78 | > 50 µM | 1.28 | 4.25 µM | 1.77 | > 50 µM | 1.63 | > 50 µM | 1.03 | 3.61 | 1.28 | 3.88 | 1.33 | 4.83 | 2.05 | > 50 µM | 1.11 µM | 2.54 µM
8 | O=C(O)c1ccc(C2C3C=CC(C3)C2[N+](=O)[O-])cc1 (stereo not given) | – | > 100 | – | > 100 µM | – | > 100 µM | – | > 100 µM | – | > 100 µM | – | > 100 | – | > 100 | – | > 100 | – | > 100 µM | – | > 100 µM
9 | O=C(/C=C\c1ccc2ccccc2n1)c1cc(Cl)ccc1O | 3.46 | 23.2 | 14.6 | 28.3 µM | 61.4 | > 100 µM | 11.7 | 45.2 µM | 2.31 | 5.2 µM | 6.58 | 21 | 5.31 | 17.1 | 5.49 | 21.5 | 18.7 | 49.6 µM | 3.32 µM | 11.3 µM
10 | C=C(C)[C@@H]1CC[C@]2(C(=O)NCCNCCNCCN)CC[C@]3(C)[C@H](CC[C@@H]4[C@@]5(C)CCC(=O)C(C)(C)[C@@H]5CC[C@]43C)[C@@H]12 | 8.2 | 21.8 | 7.16 | 14.8 µM | 10.6 | 25.9 µM | > 50 | > 50 µM | 7.34 | 14.6 µM | 6.25 | 14.1 | 7.65 | 15 | 5.87 | 13.1 | 8.5 | 17 µM | 8.88 µM | 19 µM
